The values that follow come from US5225607A, “Insecticidal ethers” (Imperial Chemical Industries PLC, priority 1985, dated 1993).

Format in all cases: in vivo
The subject of experiment [1] is Myzus persicae. Description: Insecticidal test, Myzus persicae (aphids), contact. Conditions: 72 h, Chinese Cabbage leaf, 3 days, read-out: grading of mortality, MP. As to the method:
(§1) The activity of the Product was determined using a variety of insect and acarine pests. The Product was used in the form of liquid preparations containing 500, 250 or 100 parts per million (ppm) by weight of the Product. The preparations were made by dissolving the Product in acetone and diluting the solutions with water containing 0.01% by weight of a wetting agent sold under the trade name "LISSAPOL" NX until the liquid preparations contained the required concentratio of the Product. "Lissapol" is a Registered Trade Mark.
(§2) The test procedure adopted with regard to each pest was basically the same and comprised supporting a number of the pests on a medium which was usually a host plant or a foodstuff on which the pests feed, and treating either or both the pests and the medium with the preparations. The mortality of the pests was then assessed at periods usually varying from one to three days after the treatment.
(§3) The results of the tests are given in Table IV for each of the Products, at the rate in parts per million given in the second column as a grading of mortality designated as A, B or C wherein A indicates 80-100% mortality or knockdown (70-100% in the case of Spodoptera exigua), B indicates 50-79% mortality or knockdown (50-69% in the case of Spodoptera exigua) and C indicates less than 50% mortality or knockdown.
(§4) In Table IV the pest organism used is designated by a letter code and the pest species, the support medium or food, and the type and duration of test is given in Table III.

Experiment [2] relates to Nilaparvata lugens. Description: Insecticidal test, Nilaparvata lugens (brown planthopper), contact. Particulars: 72 h, Cabbage leaf, 3 days, read-out: grading of mortality, NL. As for the experimental part:
as §1, §2, §3, §4

Experiment [3] has as its system Musca domestica. Description: Knockdown test, Musca domestica (houseflies - adults). Conditions: cotton wool/sugar, 4 hours, read-out: grading of knockdown, MD/KD. As to the method:
as §1, §2
In the case of the species Musca domestica (housefly), additional tests to determine the knockdown effect of the compounds were performed.
as §3, §4

For experiment [4], the system named is Musca domestica. Kind of experiment: Insecticidal test, Musca domestica (houseflies - adults), contact. Particulars: 24 h, cotton wool/sugar, 1 day, read-out: grading of mortality, MD. As to the method: as §1, §2, §3, §4
Experiment [5] deals with Blattella germanica. Description: Insecticidal test, Blattella germanica (cockroach nymphs), residual. Particulars: 72 h, plastic pot, 3 days, read-out: grading of mortality, BG. As to the method:
as §1, §2, §3, §4

In experiment [6] the test system is Heliothis virescens. Description: whole plant or invertebrate. Conditions: in Gossypium hirsutum, 72 h, read-out: grading of mortality, HV. As to the method:
as §1, §2, §3, §4

Experiment [7] has as its system Diabrotica balteata. Kind of experiment: Insecticidal test, Diabrotica balteata (rootworm larvae), residual. Conditions: 72 h, filter paper/maize seed, 3 days, read-out: grading of mortality, DB. As to the method: as §1, §2, §3, §4

The term mortality denotes the share of the test organisms that died. `CCOc1ccc(C(COCc2cccc(Oc3ccccc3)n2)C(F)(F)F)cc1` (stereo not shown) [Compound 4, 1,1,1-Trifluoro-2-(4-ethoxyphenyl)-3-(6-phenoxy-2-pyridylmethyloxy)propane]: the mortality at 100 ppm in experiment [1], in experiment [2], in experiment [4], in experiment [5], in experiment [6] and in experiment [7] was 80 to 100% in each case. In addition, the pest or weed control at 100 ppm in experiment [3] lay in the range of 80 to 100%.
Take `CCOc1ccc(C(Cl)(COCc2c(F)c(F)c(C)c(F)c2F)C(F)(F)F)cc1` (stereo not shown) [Compound 39, 1,1,1-Trifluoro-2-chloro-2-(4-ethoxyphenyl)-3-(4-methyl-2,3,5,6-tetrafluorobenzyloxy)propane]: the mortality at 250 ppm was < 50% in experiment [1]; 80 to 100% in experiment [2]; < 50% in experiment [4]; < 50% in experiment [5]; < 50% in experiment [6]; < 50% in experiment [7]. Moreover, the pest or weed control at 250 ppm in experiment [3] was < 50%.
In the case of `CCOc1ccc(C(Cl)(COCc2ccc(F)c(Oc3ccccc3)c2)C(F)(F)F)cc1` (stereo not shown) [Compound 40, 1,1,1-Trifluoro-2-chloro-2-(4-ethoxyphenyl)-3-(3-phenoxy-4-fluorobenzyloxy)propane], the mortality at 250 ppm in experiment [1], in experiment [2], in experiment [4], in experiment [5], in experiment [6] and in experiment [7] was 80 to 100% in each case. The pest or weed control at 250 ppm in experiment [3] was in the range of 80 to 100%.
With `CCOc1ccc(C(Cl)(COCc2cccc(Oc3ccccc3)n2)C(F)(F)F)cc1` (stereo not shown) [Compound 41, 1,1,1-Trifluoro-2-chloro-2-(4-ethoxyphenyl)-3-(6-phenoxy-2-pyridylmethyloxy)propane], the mortality at 500 ppm in experiment [1] was 80 to 100%; in experiment [2], 80 to 100%; in experiment [4], 80 to 100%; in experiment [5], < 50%; in experiment [6], 80 to 100%; in experiment [7], 80 to 100%. For the same compound, in experiment [3], the pest or weed control at 500 ppm is 80 to 100%.
With `CCOc1ccc(C(F)(COCc2cccc(Oc3ccccc3)c2)C(F)(F)F)cc1` (stereo not shown) [Compound 75, 1,1,1,2-tetrafluoro-2-(4-ethoxyphenyl)-3-(3-phenoxybenzyloxy)propane], the mortality at 100 ppm was 50 to 79% in experiment [1]; 80 to 100% in experiment [2]; 50 to 79% in experiment [4]; < 50% in experiment [5]; < 50% in experiment [6]; 80 to 100% in experiment [7]. Besides, the pest or weed control at 100 ppm in experiment [3] was in the range of 80 to 100%.
Regarding `CCOc1ccc(C(F)(COCc2cccc(Oc3ccccc3)n2)C(F)(F)F)cc1` (stereo not shown) [Compound 76, 1,1,1,2-Tetrafluoro-2-(4-ethoxyphenyl)-3-(6-phenoxy-2-pyridylmethyloxy)propane], the mortality at 500 ppm in experiment [1], in experiment [2], in experiment [4], in experiment [5], in experiment [6] and in experiment [7] was 80 to 100% throughout. Further, the pest or weed control at 500 ppm in experiment [3] lay within 80 to 100%.
On to `CCOc1ccc(C(F)(COCc2ccc(F)c(Oc3ccccc3)c2)C(F)(F)F)cc1` (stereo not shown) [Compound 77, 1,1,1,2-Tetrafluoro-2-(4-ethoxyphenyl)-3-(3-phenoxy-4-fluorobenzyloxy)propane], for which the mortality at 250 ppm in experiment [1], in experiment [2], in experiment [4], in experiment [5], in experiment [6] and in experiment [7] was 80 to 100% throughout. The pest or weed control at 250 ppm in experiment [3] lay in the range of 80 to 100%.
On to `CCOc1ccc(C(F)(COCc2c(F)c(F)c(C)c(F)c2F)C(F)(F)F)cc1` (stereo not shown) [Compound 78, 1,1,1,2-Tetrafluoro-2-(4-ethoxyphenyl)-3-(4-methyl-2,3,5,6-tetrafluorobenzyloxy)propane], for which the mortality at 250 ppm in experiment [1] was < 50%; in experiment [2], 80 to 100%; in experiment [4] it was < 50%; in experiment [5], 80 to 100%; in experiment [6], 80 to 100%; in experiment [7], 80 to 100%. In addition, the pest or weed control at 250 ppm in experiment [3] was < 50%.
`CCOc1ccc(C(O)(COCc2ccc(F)c(Oc3ccccc3)c2)C(F)(F)F)cc1` (stereo not shown) [Compound 113, 1,1,1-Trifluoro-2-(4-ethoxyphenyl)-3-(4-fluoro-3-phenoxybenzyloxy)propan-2-ol]: the mortality at 250 ppm was < 50% in experiment [1]; 50 to 79% in experiment [2]; 50 to 79% in experiment [4]; < 50% in experiment [5]; < 50% in experiment [6]; 80 to 100% in experiment [7]. Also, in experiment [3], the pest or weed control at 250 ppm fell in the range of 80 to 100%.
With `CCOc1ccc(C(O)(COCc2c(F)c(F)c(C)c(F)c2F)C(F)(F)F)cc1` (stereo not shown) [Compound 114, 1,1,1-Trifluoro-2-(4-ethoxyphenyl)-3-(4-methyl-2,3,5,6-tetrafluorobenzyloxy)propan-2-ol], the mortality at 100 ppm is < 50% in experiment [1]; 50 to 79% in experiment [2]; < 50% in experiment [4]; < 50% in experiment [5]; < 50% in experiment [6]; < 50% in experiment [7]. The pest or weed control at 100 ppm in experiment [3] was < 50%.
Take `OC(COCc1cccc(Oc2ccccc2)c1)(c1ccc(OC(F)(F)F)cc1)C(F)(F)F` (stereo not shown) [Compound 139, 1,1,1-trifluoro-2-(4-trifluoromethoxyphenyl)-3-(3-phenoxybenzyloxy)-propan-2-ol]: the mortality at 500 ppm is < 50% in experiment [1]; < 50% in experiment [2]; 80 to 100% in experiment [4]; < 50% in experiment [5]; 80 to 100% in experiment [6]; 80 to 100% in experiment [7]. In experiment [3], the pest or weed control at 500 ppm lay in the range of 80 to 100%.
Consider `CCOc1ccc(C(O)(COCc2cccc(Oc3ccccc3)n2)C(F)(F)F)cc1` (stereo not shown) [Compound 141, 1,1,1-trifluoro-2-(4-ethoxyphenyl)-3-(6-phenoxy-2-pyridylmethyloxy)propan-2-ol], for which the mortality at 500 ppm in experiment [1] was < 50%; in experiment [2] it was 50 to 79%; in experiment [4] it was 80 to 100%; in experiment [5] it was < 50%; in experiment [6], 80 to 100%; in experiment [7], 50 to 79%. In addition, the pest or weed control at 500 ppm in experiment [3] is 80 to 100%.
As for `CCOc1ccc(C(COCc2ccc(F)c(Oc3ccccc3)c2)(OC(C)=O)C(F)(F)F)cc1` (stereo not shown) [Compound 149, 1,1,1-trifluoro-2-acetoxy-2-(4-ethoxyphenyl)-3-(3-phenoxy-4-fluorobenzyloxy)propane], the mortality at 250 ppm in experiment [1] is < 50%; in experiment [2], 50 to 79%; in experiment [4] it was < 50%; in experiment [5] it was < 50%; in experiment [6], 50 to 79%; in experiment [7] it was < 50%. Moreover, in experiment [3], the pest or weed control at 250 ppm was < 50%.
